The values that follow come from ChEMBL document CHEMBL1141010, “Chroman-3-amides as potent Rho kinase inhibitors” (Bioorg Med Chem Lett, 2008).

Common to all, as to assay type: ADME, organism-based
Series [1] is described as follows: Cmax in rat at 2 mg/kg, po. Also noted: dose 2 mg/kg, route oral. The note with it: in vivo.
Series [2] is described as follows: Oral bioavailability in rat at 2 mg/kg. The note with it: in vivo.
Series [3] in a line: Volume of distribution at steady state in rat at 1 mg/kg, iv and 2 mg/kg, po. The note with it: in vivo, read-out: Vdss.

For `CN(C)CCOc1cc(-c2cn[nH]c2)ccc1NC(=O)C1COc2ccccc2C1` (centres undefined), the Cmax in series [1] was found to be 170 nM. Also, in series [2], the bioavailability was 33%. Besides, the Vd in series [3] was found to be 4.6 L/kg.
The corresponding values for `CN(C)CCOc1cc(-c2cn[nH]c2)ccc1NC(=O)C1COc2ccc(F)cc2C1` (centres undefined) are 100 nM, 27% and 5.9 L/kg.
On to `COc1ccc2c(c1)CC(C(=O)Nc1ccc(-c3cn[nH]c3)cc1OCCN(C)C)CO2` (centres undefined), for which the concentration in series [1] peaked (Cmax) at 320 nM. For the same compound, in series [2], the bioavailability was found to be 35%. Further, in series [3], the Vd is 1.7 L/kg.
